Test [1] has as its system Pezicula malicorticis 160622 (DSM 62715). The experiment in a line: Apple test (wound inoculation), Pezicula malicorticis 160622. The note with it: apples Elstar Fuchshof, 20° C., 16 days; Aureobasidium overall 1×10^7 cells/ml; fludioxonil 0.125 g/l, cyprodinil 0.1875 g/l. Format: in vivo. As for the experimental part:
The effect of the Aureobasidium pullulans strains AP 241 (DSM 32467), AP 268 (DSM 32468), DSM 14940 and DSM 14941 (individually or in combination), together with the chemical fungicides cyprodinil and fludioxonil (individually or in combination), against the fungal plant pathogens Botrytis and Neofabreaea was determined in an apple test. 12 untreated apples of the same cultivar, having a uniform degree of maturity and size, were used for each treatment. Prior to the test, the apples were surface-sterilized for three minutes in 70% ethanol and dried in a clean bench. Four wounds, having a wound diameter of 5 mm, were made at equal distances in each apple in the equatorial plane between the calyx and the stem using a sterile pipette tip. Immediately after the creation of the four artificial wounds, 10 μl of different test solutions (preparations) was applied to each apple. Thereafter, the apples were stored. An area of decay formed around the wounds, the diameter of the area representing a measure of the spread of the infection with the pathogen. For the evaluation, the diameters of the punctures of 0.5 cm each were deducted from the diameter of the decay area.
The 4 test solutions that were each placed in one of the 4 wounds of each apple were: • 1. Pathogen (negative control) • 2. Pathogen and Aureobasidium pullulans (individually or in combination) • 3. Pathogen and chemical fungicide (individually or in combination) • 4. Pathogen and Aureobasidium pullulans (individually or in combination) and chemical fungicide (individually or in combination)
(§1) The effectiveness of the inhibition of the pathogen was calculated for test solutions 2 to 4 from the diameters of the areas of decay, which were measured at the end of the storage period. […]
(§2) According to the Colby formula (S. R. Colby “Calculating synergistic and antagonistic responses of herbicide combinations,” Weeds 15, pages 20 to 22, 1967), expected values (E) of the effect of the combination of Aureobasidium and the chemical fungicide (test solution 4) were calculated from the effectiveness (WG) figures of the individual components in test solutions 2 and 3 according to the following formula: […]
If the measured effectiveness of the combination of the Aureobasidium pullulans strains and the chemical fungicide (test solution 4) is greater than the calculated expected value (E), this is referred to as a synergistic effect (the individual components potentiate each other in an over-additive effect). The synergism factor is a measure of the synergistic effect and was calculated as the quotient from the effectiveness of the combination of the substances or components (test solution 4) and the calculated expected value (E). […]

The subject of test [2] is Botrytis cinerea Bc97 (DSM 32469). The test is described as follows: Apple test (wound inoculation), Botrytis cinerea Bc97. The note with it: apples Jonagold Honsel, 20° C., 6 days; Aureobasidium 5×10^6 cells/ml total; fludioxonil 0.125 g/l, cyprodinil 0.1875 g/l. Format: in vivo. As for the experimental part: The effect of the Aureobasidium pullulans strains AP 241 (DSM 32467), AP 268 (DSM 32468), DSM 14940 and DSM 14941 (individually or in combination), together with the chemical fungicides cyprodinil and fludioxonil (individually or in combination), against the fungal plant pathogens Botrytis and Neofabreaea was determined in an apple test. 12 untreated apples of the same cultivar, having a uniform degree of maturity and size, were used for each treatment. Prior to the test, the apples were surface-sterilized for three minutes in 70% ethanol and dried in a clean bench. Four wounds, having a wound diameter of 5 mm, were made at equal distances in each apple in the equatorial plane between the calyx and the stem using a sterile pipette tip. […]
as §1, §2

Several values for one entry are separate records, joined by “and”; a condition that tells them apart may be missing. Equal values may be shown once.

Regarding `N#Cc1c[nH]cc1-c1cccc2c1OC(F)(F)O2` [fludioxonil], in test [1], the “Effectiveness (decrease in diameter of decay area vs. negative control)” value is listed as −3.8% and the “Mean diameter of decay areas” value is on record as 1.91 cm.

For the molecule `Cc1cc(C2CC2)nc(Nc2ccccc2)n1` [cyprodinil], in test [1], the “Effectiveness (decrease in diameter of decay area vs. negative control)” value stood at 17.0% and the “Mean diameter of decay areas” value is 1.61 cm. The “Mean diameter of decay areas” value in test [2] is 2.80 cm and 3.14 cm and 2.21 cm and 2.52 cm and 3.63 cm and 3.51 cm and 3.38 cm.
